Assay results reported in article PMC9504029, “Identification and Characterization of Novel Small-Molecule SMOX Inhibitors” (Medical Sciences, 2022).
Where two headings read alike, the source gives them in different places.

Columns and labels:
recombinant human MAO-A = molecular target: T1, recombinant human MAO-A (Homo sapiens, UniProt P21397); assay: MAO-Glo assay, MAO-A; type: biochemical; conditions: for inhibition at 20 µM: read-out: % Inhibition at 20 μM ± SD, MAO-A
T1 construct: purchased Sigma-Aldrich M7316-1VL
T1 sequence (P21397 1-527): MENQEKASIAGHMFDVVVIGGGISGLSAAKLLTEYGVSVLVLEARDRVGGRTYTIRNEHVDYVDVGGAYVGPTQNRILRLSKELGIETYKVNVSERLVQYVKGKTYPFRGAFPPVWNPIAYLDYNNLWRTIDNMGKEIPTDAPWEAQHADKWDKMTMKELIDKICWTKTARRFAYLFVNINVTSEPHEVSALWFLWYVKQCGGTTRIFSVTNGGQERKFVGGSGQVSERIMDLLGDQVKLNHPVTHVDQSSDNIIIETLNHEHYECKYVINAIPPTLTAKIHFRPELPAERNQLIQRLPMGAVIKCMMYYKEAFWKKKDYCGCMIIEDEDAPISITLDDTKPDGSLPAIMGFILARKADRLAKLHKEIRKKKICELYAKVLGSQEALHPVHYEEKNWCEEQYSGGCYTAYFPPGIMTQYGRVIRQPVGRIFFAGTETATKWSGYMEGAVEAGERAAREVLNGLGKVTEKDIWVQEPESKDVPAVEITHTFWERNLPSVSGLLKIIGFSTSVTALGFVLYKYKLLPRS
Procedure: (§1) To determine selectivity, the compounds were tested for activity against the related FAD-dependent amine oxidase enzymes LSD1, MAO-A, and MAO-B. LSD1 activity was assessed using a commercially available assay kit (#700120, Cayman Chemical, Ann Arbor, MI, USA), in which the enzyme activity was determined by the horseradish peroxidase-catalyzed oxidation of 10-acetyl-3,7-dihydroxyphenoxazine to the highly fluorescent resorufin in response to H2O2 production. Monoamine oxidase activity was determined using recombinant human MAO-A and MAO-B (M7316-1VL & M7441-1VL, Sigma-Aldrich, St. Louis, MO, USA) and a commercially available assay kit (#V1401, MAO-Glo, Promega, Madison, WI, USA), which utilizes the MAO-catalyzed oxidation of a luciferin derivative coupled with esterase activity to produce luminescence. Fluorescent and luminescent readout was obtained using a SpectraMax M5 plate reader (Molecular Devices) equipped with SOFTmax PRO 7.0.3 software. […] Values were reported as mean % inhibition ± SD of triplicate assay wells normalized to background activity and compared to the vehicle control.

recombinant human MAO-B = molecular target: T2, recombinant human MAO-B (Homo sapiens, UniProt P27338); assay: MAO-Glo assay, MAO-B; type: biochemical; conditions: for inhibition at 20 µM: read-out: % Inhibition at 20 μM ± SD, MAO-B
T2 construct: purchased Sigma-Aldrich M7441-1VL
T2 sequence (P27338 1-520): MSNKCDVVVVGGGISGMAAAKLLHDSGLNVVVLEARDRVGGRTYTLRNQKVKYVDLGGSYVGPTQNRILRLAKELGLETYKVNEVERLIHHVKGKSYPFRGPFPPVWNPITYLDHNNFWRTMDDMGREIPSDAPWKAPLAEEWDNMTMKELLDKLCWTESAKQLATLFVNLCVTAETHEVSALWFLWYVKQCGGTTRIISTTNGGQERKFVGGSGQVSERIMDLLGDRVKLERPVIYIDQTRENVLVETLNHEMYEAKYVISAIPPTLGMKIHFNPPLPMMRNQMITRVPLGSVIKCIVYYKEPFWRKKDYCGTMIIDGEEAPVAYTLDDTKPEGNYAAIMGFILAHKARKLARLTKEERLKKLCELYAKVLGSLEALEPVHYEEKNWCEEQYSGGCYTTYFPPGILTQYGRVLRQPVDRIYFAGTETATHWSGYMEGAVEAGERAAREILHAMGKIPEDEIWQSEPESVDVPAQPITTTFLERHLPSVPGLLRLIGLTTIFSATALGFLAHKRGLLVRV
Procedure: as §1

SMOX [1] = molecular target: T3, SMOX (Homo sapiens, UniProt Q9NWM0); assay: SMOX enzyme activity, HRP-luminol chemiluminescence assay; type: biochemical; conditions: 2 mM spermine; for inhibition at 20 µM: 20 µM compound, no pre-incubation, triplicate, read-out: % Inhibition at 20 μM ± SD, SMOX; for IC50: AUC over 60 s, pH 8
T3 construct: using 0.3 µg/mL of purified SMOX enzyme and 2 mM of spermine substrate
Procedure: As the catabolism of spermine by SMOX results in the stoichiometric production of H2O2, enzyme activity was quantified by chemiluminescence generated by the horseradish peroxidase-catalyzed oxidation of luminol in 96-well plates (Costar #3912; white, flat bottom), as previously described. All assays were performed in 0.083 M glycine buffer at a pH of 8 using 0.3 µg/mL of purified SMOX enzyme and 2 mM of spermine substrate. Phosphate buffer was not used to prevent the formation of polyamine–phosphate complexes. Enzyme reactions were initiated by the addition of SMOX and HRP to all other assay components; inhibitors were not pre-incubated with enzyme. Triplicate determinations were obtained for each measurement by recording the luminescence (AUC) over 60 s. Hit compounds were then confirmed by monitoring the assay over 600 s. Each triplicate assay point contained a 4th control well to monitor and normalize the data with regards to luminescent decay over time. The compounds were initially screened for activity at a concentration of 20 µM. […] The known SMOX inhibitor, MDL-72527, was used as a control. The hit compounds were then characterized by IC50 and kinetic analyses. Percent inhibition values are reported as triplicate mean % SMOX inhibition ± SD compared to the vehicle control. IC50 values were calculated in GraphPad Prism 9.3 software (Graph-Pad, San Diego, California) using a non-linear regression analysis ([Inhibitor] vs. normalized response—variable slope). Data for all enzyme assays were generated using a SpectraMax M5 plate reader (Molecular Devices) equipped with SOFTmax PRO 7.0.3 software.

LSD1 = molecular target: T4, LSD1 (Homo sapiens, UniProt O60341); assay: LSD1 selectivity assay (Cayman kit, resorufin fluorescence); type: biochemical; conditions: read-out: % Inhibition at 20 μM ± SD, LSD1
T4 construct: purchased Cayman Chemical #700120

[2] = test system: SH-SY5Y neuroblastoma cells; assay: Cytotoxicity analysis, MTS assay; type: cell-based; conditions: doses below 1 mM
Procedure: (§2) SH-SY5Y neuroblastoma cells purchased from ATCC (Manassas, VA, USA) were cultured in Dulbecco’s modified Eagle medium (DMEM) without phenol red and supplemented with 10% heat inactivated human AB serum, 4 mM L-glutamine, and 1% penicillin/streptomycin. As the oxidation of spermine by various polyamine oxidases has been documented in cell culture containing ruminant serum, such as in fetal bovine serum (FBS) and horse serum, human AB serum was used to prevent assay interference. The cells were maintained in 5% CO2 humidified atmosphere at 37 °C. Cell media was replaced every 2 days and the cells were discarded after a maximum of 15 passages.
(§3) The SH-SY5Y neuroblastoma cells were plated in 96-well plates at a density of 30,000 cells/well and allowed to reach 80% confluence, followed by treatment with varying concentrations of inhibitor ranging from 0 to 10 mM for 12 h. Cell viability was assessed by standard MTS assay, in which MTS reagent was added to each well at a concentration of 0.33 mg/mL and incubated at 37 °C for 3 h. Viability was monitored and confirmed by a visual inspection of the cells. Absorbance was read at 490 nm and the absorbance values were normalized to background wells containing varying concentrations of inhibitor, cell media, and MTS reagent. Colorimetric readout was obtained using a SpectraMax M5 plate reader (Molecular Devices) equipped with SOFTmax PRO 7.0.3 software.

[3] = Cytotoxicity analysis, MTS assay; type: cell-based; conditions: human, SH-SY5Y neuroblastoma cells, MTS
Procedure: as §2, §3

SMOX [4] = molecular target: T3, SMOX; assay: Mechanism of inhibition and enzyme kinetics (Lineweaver–Burk, global fit); type: biochemical
Procedure: The mechanism of enzyme inhibition was determined using the HRP-luminol coupled enzyme assay described above. Reaction velocity (max RLU/sec over 10 min) was measured across multiple substrate and inhibitor concentrations, and individual triplicate values were plotted using a Lineweaver–Burk transformation (double-reciprocal) in GraphPad Prism 9.3 software (Graph-Pad, San Diego, CA, USA).

SMOX [5] = molecular target: T3, SMOX; conditions: cited from earlier work

T3 sequence (Q9NWM0 whole entry): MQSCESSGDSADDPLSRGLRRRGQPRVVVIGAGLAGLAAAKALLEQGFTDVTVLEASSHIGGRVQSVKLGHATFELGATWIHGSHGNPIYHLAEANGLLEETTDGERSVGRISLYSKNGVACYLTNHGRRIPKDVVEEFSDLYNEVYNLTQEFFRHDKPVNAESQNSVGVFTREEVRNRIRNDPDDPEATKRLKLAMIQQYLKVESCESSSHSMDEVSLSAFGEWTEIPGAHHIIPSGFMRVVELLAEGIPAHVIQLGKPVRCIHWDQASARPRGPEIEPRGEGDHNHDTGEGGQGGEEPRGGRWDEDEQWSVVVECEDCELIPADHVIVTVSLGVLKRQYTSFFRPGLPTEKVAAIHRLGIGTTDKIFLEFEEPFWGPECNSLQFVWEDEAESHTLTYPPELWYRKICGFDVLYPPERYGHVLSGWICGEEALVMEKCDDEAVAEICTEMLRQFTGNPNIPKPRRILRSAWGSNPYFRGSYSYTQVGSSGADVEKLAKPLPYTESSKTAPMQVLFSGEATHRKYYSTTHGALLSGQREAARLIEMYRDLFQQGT

Row | inhibition at 20 µM (recombinant human MAO-B) | inhibition at 20 µM (recombinant human MAO-A) | inhibition at 20 µM (SMOX [1]) | IC50 (SMOX [1]) | inhibition at 20 µM (LSD1) | SMILES | Mechanism of inhibition of SMOX (SMOX [5]) | further results
1 |  |  |  |  |  | N[C@@H]1C[C@H]1c1ccccc1 (racemic) [TCP, Tranylcypromine, reference compound] |  | % Inhibition at 20 μM ± SD, MAO-A (recombinant human MAO-A): 92.6 ± 0.2%
2 | 3.5 ± 1.3% | -5.5 ± 4.2% | 93.6 ± 1% | 8.3 µM | -18.7 ± 9.8% | N=C(N)NCCCNCC(O)c1cc(O)cc(O)c1 (stereo not drawn) [Compound 2] |  | 
3 | -16.9 ± 12.3% | -13.7 ± 4.6% | 96.7 ± 0.2% | 6.02 µM | 41.6 ± 24.4% | N=C(N)NCCCCNCC(O)c1cc(O)cc(O)c1 (stereo not drawn) [Compound 3] |  | 
4 | 4.5 ± 9.5% | 7.3 ± 0.7% | 96.3 ± 0.1% | 0.47 µM | 46.2 ± 25.7% | N=C(N)NCCCNCC(O)c1ccc(O)c(O)c1 (stereo not drawn) [Compound 5] |  | 
5 |  |  | 10.2 ± 0.9% |  |  | C=C=CCNCCCCNCC=C=C [MDL-72527, N^1,N^4-bis(2,3-butadienyl)-1,4-butanediamine] | irreversible inhibitor | IC50 (SMOX [5]): 89 to 100 µM; Ki (SMOX [5]): 63 µM
6 |  |  |  |  |  | CC(C)=CCNC(=N)NCCCCN [N-prenylagmatine] | competitive inhibitors | 
7 |  |  |  |  |  | [H]/N=C(\N/C(=N/[H])NCCCCCCNC(=N)NC(=N)Nc1ccc(Cl)cc1)Nc1ccc(Cl)cc1 [chlorhexidine] | competitive inhibitors | Ki (SMOX [5]): 0.55 to 3.8 µM
8 |  |  |  |  |  | N=C(N)NCCCCCCCCNCCCCCCCCNC(=N)N [guazatine] | competitive inhibitors | 
9 |  |  |  |  |  | COc1ccccc1CNCCCCCCNCCCCCCCCNCCCCCCNCc1ccccc1OC [methoctramine] |  | Ki (SMOX [5]): 1.2 µM

Row | SMILES | inhibition at 20 µM (recombinant human MAO-B) | inhibition at 20 µM (recombinant human MAO-A) | inhibition at 20 µM (SMOX [1]) | IC50 (SMOX [1]) | inhibition at 20 µM (LSD1) | Mechanism of inhibition of SMOX (SMOX [5]) | further results
10 | N=C(N)NCCNCC(O)c1ccc(O)c(O)c1 (stereo not drawn) [Compound 4] | 12.6 ± 1.6% | 15.5 ± 0.5% | 95.7 ± 0.3% | 0.23 µM | 31.9 ± 12.6% |  | Toxicity after 12-h exposure [2]: did not produce significant toxicity; CC50 at 12 h ([3]; 12 h post treatment, read-out: LC50 (dose corresponding to 50% viability)): 3600 µM
11 | N=C(N)NCCCNCC(O)c1cc(O)ccc1O (stereo not drawn) [Compound 7] | 29% | 45% | 99.9 ± 0.1% | 0.23 µM | > 73% |  | % Inhibition at 20 μM ± SD, MAO-B (recombinant human MAO-B): 29.1 ± 2.1%; % Inhibition at 20 μM ± SD, MAO-A (recombinant human MAO-A): 45.1 ± 7.7%; CC50 at 12 h ([3]; 12 h, read-out: LC50): 130 µM; Mechanism of inhibition (SMOX [4]; Lineweaver–Burk analysis): competitive; Ki (SMOX [4]; global fit for competitive inhibition, inhibitor 0, 0.1, 1 µM): 0.46 µM
